Experimental data: ChEMBL document CHEMBL1909046, “DrugMatrix in vitro pharmacology data”

Legend:
[1] = molecular target: T1, Cholecystokinin receptor type A (Homo sapiens, UniProt P32238); format: cell membranes, Membrane; conditions: 1321-n1; note: in other assays of this panel Not Active means under 50% inhibition at 10 µM
T1 sequence (P32238 whole entry): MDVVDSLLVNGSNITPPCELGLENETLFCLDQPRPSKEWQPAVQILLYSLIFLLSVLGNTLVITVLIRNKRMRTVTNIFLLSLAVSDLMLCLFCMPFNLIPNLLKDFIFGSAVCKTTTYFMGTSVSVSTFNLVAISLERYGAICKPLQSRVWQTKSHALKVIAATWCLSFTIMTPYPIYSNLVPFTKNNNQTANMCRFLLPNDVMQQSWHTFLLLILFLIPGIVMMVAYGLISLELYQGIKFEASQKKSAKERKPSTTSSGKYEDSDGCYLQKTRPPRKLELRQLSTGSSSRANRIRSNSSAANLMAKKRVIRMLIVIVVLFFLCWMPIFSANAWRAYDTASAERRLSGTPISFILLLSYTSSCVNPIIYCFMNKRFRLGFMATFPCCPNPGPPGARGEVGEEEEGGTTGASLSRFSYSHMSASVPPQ

[2] = molecular target: Sodium-dependent dopamine transporter (Homo sapiens, UniProt Q01959); test: DRUGMATRIX: Dopamine Transporter radioligand binding (ligand: [125I] RTI-55); format: cell membranes, CHO-K1, Membrane; conditions: cho-k1; Not Active = under 50% inhibition at 10 µM
[3] = DRUGMATRIX: ATPase, Na+/K+ enzyme inhibition (substrate: ATP); format: tissue-based, Sus scrofa, Heart; conditions: Not Active = under 50% inhibition at 10 µM
[4] = molecular target: Beta-3 adrenergic receptor (Homo sapiens, UniProt P13945); test: DRUGMATRIX: Adrenergic beta3 radioligand binding (ligand: [125I] Cyanopindolol); format: cell membranes, HEK293, Membrane; conditions: hek293; Not Active = under 50% inhibition at 10 µM
[5] = molecular target: Kappa-type opioid receptor (Homo sapiens, UniProt P41145); test: DRUGMATRIX: Opiate kappa (OP2, KOP) radioligand binding (ligand: [3H] Diprenorphine); format: cell membranes, HEK293, Membrane; conditions: hek293; Not Active = under 50% inhibition at 10 µM
[6] = molecular target: T2, 3-hydroxy-3-methylglutaryl-coenzyme A reductase (Homo sapiens, UniProt P04035); set-up: species or system Escherichia coli;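 note: enzyme inhibition assay of HMG-CoA reductase using radiolabeled [14C]HMG-CoA as substrate; in other assays of this panel Not Active means under 50% inhibition at 10 µM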
T2 sequence (P04035 whole entry): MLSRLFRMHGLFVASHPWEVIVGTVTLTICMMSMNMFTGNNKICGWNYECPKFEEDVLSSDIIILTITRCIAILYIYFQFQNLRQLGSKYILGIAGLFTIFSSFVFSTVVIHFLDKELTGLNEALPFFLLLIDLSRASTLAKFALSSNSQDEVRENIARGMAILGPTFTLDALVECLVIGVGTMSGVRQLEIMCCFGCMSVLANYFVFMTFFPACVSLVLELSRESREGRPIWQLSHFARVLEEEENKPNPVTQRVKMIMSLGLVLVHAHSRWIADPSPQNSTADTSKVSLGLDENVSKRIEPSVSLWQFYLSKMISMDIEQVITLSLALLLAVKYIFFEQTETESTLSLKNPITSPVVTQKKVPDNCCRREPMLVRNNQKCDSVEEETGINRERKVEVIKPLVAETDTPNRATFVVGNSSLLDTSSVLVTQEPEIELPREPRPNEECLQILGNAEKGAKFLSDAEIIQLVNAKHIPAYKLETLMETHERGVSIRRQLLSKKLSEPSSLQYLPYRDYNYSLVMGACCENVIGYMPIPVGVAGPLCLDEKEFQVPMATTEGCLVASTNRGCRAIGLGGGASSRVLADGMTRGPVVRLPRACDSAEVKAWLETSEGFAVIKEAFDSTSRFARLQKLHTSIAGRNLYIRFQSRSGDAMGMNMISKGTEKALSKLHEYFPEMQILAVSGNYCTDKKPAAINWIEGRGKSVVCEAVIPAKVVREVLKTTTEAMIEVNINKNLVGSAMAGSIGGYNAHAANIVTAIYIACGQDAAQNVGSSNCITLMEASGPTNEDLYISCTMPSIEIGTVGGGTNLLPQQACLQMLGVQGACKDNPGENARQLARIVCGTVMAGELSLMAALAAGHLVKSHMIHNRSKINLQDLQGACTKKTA

Caspase-1 = molecular target: T3, Caspase-1 (Homo sapiens, UniProt P29466); set-up: species or system Escherichia coli;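 note: Caspase-1 enzyme inhibition assay with a peptide substrate; in other assays of this panel Not Active means under 50% inhibition at 10 µM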
T3 sequence (P29466 whole entry): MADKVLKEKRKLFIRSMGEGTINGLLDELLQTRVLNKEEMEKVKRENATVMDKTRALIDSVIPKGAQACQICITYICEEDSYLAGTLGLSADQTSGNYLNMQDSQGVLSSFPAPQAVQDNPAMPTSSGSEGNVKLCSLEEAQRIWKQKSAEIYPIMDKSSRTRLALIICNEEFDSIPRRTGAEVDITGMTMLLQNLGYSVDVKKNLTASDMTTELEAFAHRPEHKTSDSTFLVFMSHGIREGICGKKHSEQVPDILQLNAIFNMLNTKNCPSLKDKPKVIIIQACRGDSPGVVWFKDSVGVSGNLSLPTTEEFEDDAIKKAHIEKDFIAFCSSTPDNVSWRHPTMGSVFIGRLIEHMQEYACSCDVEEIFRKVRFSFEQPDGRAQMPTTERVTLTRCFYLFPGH

Chain of Beta-3 adrenergic receptor (P13945 whole entry): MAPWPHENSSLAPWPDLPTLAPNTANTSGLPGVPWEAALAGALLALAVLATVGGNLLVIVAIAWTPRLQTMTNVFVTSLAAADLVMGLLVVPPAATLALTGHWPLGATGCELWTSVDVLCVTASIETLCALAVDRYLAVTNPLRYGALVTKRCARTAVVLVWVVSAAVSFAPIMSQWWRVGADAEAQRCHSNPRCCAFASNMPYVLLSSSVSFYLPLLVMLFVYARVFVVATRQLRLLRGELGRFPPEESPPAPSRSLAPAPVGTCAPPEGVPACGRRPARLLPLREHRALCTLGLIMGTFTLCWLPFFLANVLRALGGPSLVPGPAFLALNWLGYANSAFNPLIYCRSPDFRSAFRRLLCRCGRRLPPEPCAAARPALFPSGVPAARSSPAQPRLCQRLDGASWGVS
Chain of Sodium-dependent dopamine transporter (Q01959 whole entry): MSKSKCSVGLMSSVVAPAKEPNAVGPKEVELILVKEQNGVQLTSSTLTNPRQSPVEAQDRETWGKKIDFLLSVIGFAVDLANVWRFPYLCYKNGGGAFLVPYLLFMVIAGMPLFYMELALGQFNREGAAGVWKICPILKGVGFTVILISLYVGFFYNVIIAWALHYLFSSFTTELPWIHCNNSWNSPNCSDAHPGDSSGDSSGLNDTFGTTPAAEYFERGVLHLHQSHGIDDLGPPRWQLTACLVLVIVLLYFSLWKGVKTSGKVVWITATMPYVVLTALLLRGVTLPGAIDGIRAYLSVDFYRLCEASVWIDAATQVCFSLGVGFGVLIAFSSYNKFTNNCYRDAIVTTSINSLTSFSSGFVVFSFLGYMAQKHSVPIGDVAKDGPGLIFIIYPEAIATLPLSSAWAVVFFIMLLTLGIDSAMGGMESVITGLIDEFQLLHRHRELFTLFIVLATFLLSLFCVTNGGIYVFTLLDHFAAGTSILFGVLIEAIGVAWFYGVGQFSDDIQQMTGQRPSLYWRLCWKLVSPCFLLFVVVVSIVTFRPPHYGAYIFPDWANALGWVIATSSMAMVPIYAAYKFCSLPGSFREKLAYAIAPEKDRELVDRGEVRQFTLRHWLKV
Chain of Kappa-type opioid receptor (P41145 whole entry): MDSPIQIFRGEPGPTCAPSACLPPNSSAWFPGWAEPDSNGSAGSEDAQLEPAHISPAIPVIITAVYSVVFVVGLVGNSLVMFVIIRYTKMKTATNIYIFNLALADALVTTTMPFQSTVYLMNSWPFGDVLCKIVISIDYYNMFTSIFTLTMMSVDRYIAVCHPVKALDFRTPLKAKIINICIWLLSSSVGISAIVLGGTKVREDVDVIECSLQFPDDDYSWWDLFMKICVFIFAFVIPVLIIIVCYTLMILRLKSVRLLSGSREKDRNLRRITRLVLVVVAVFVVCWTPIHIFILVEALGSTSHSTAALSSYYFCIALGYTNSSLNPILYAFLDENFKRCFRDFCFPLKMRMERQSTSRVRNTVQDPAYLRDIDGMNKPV

CC(C)[C@H](N)C(=O)OCCOCn1cnc2c(=O)nc(N)[nH]c21 [VALACYCLOVIR]
Not Active: IC50 [1] | IC50 [2] | IC50 [3] | Ki [3] | IC50 [4] | IC50 [5] | IC50 [6] | IC50 (Caspase-1)

COS(C)(=O)=O [METHANESULFONIC ACID METHYL ESTER]
Not Active: IC50 [1] | IC50 [2] | IC50 [3] | Ki [3] | IC50 [4] | IC50 [5] | IC50 [6] | IC50 (Caspase-1)

CC1CN(c2cc3c(cc2F)c(=O)c(C(=O)O)cn3-c2ccc(F)cc2F)CCN1 (configuration not stated) [TEMAFLOXACIN]
Not Active: IC50 [1] | IC50 [2] | IC50 [3] | Ki [3] | IC50 [4] | IC50 [5] | IC50 [6] | IC50 (Caspase-1)

O=C1c2c(O)ccc(O)c2C(=O)c2c(NCCNCCO)ccc(NCCNCCO)c21 [MITOXANTRONE]
Not Active: IC50 [1] | IC50 [2] | IC50 [3] | Ki [3] | IC50 [4] | IC50 [5] | IC50 [6] | IC50 (Caspase-1)

CN(C)[C@@H]1C(O)=C(C(N)=O)C(=O)[C@@]2(O)C(O)=C3C(=O)c4c(O)cccc4[C@@](C)(O)[C@H]3C[C@@H]12 [TETRACYCLINE]
Not Active: IC50 [1] | IC50 [2] | IC50 [3] | Ki [3] | IC50 [4] | IC50 [5] | IC50 [6] | IC50 (Caspase-1)

COc1cc(C(=O)NC2CCCNC2)cc(OC)c1OC (configuration not stated) [TROXIPIDE]
Not Active: IC50 [1] | IC50 [2] | IC50 [3] | Ki [3] | IC50 [4] | IC50 [5] | IC50 [6] | IC50 (Caspase-1)

CC1(C)[C@H]2CC[C@]1(C)C(=O)C2 [(-)-CAMPHOR]
Not Active: IC50 [1] | IC50 [2] | IC50 [3] | Ki [3] | IC50 [4] | IC50 [5] | IC50 [6] | IC50 (Caspase-1)

Nc1ccc(S(N)(=O)=O)cc1 [SULFANILAMIDE]
Not Active: IC50 [1] | IC50 [2] | IC50 [3] | Ki [3] | IC50 [4] | IC50 [5] | IC50 [6] | IC50 (Caspase-1)

c1ccc2[nH]c(-c3cscn3)nc2c1 [THIABENDAZOLE]
Not Active: IC50 [1] | IC50 [2] | IC50 [3] | Ki [3] | IC50 [4] | IC50 [5] | IC50 [6] | IC50 (Caspase-1)

CC[C@H]1OC(=O)[C@H](C)[C@@H](O[C@H]2C[C@@](C)(OC)[C@@H](O)[C@H](C)O2)[C@H](C)[C@@H](O[C@@H]2O[C@H](C)C[C@H](N(C)C)[C@H]2O)[C@](C)(O)C[C@@H](C)/C(=N\OCOCCOC)[C@H](C)[C@@H](O)[C@]1(C)O [ROXITHROMYCIN]
Not Active: IC50 [1] | IC50 [2] | IC50 [3] | Ki [3] | IC50 [4] | IC50 [5] | IC50 [6] | IC50 (Caspase-1)

CCOC(=O)[C@H](CCc1ccccc1)N[C@@H](C)C(=O)N1[C@H](C(=O)O)C[C@@H]2CCC[C@@H]21
Not Active: IC50 [1] | IC50 [2] | IC50 [3] | Ki [3] | IC50 [4] | IC50 [5] | IC50 [6] | IC50 (Caspase-1)

NNC(=O)c1ccncc1 [ISONIAZID]
Not Active: IC50 [1] | IC50 [2] | IC50 [3] | Ki [3] | IC50 [4] | IC50 [5] | IC50 [6] | IC50 (Caspase-1)

Nc1nnc(-c2cccc(Cl)c2Cl)c(N)n1 [LAMOTRIGINE]
Not Active: IC50 [1] | IC50 [2] | IC50 [3] | Ki [3] | IC50 [4] | IC50 [5] | IC50 [6] | IC50 (Caspase-1)

C[C@]12Cc3c[nH]nc3C[C@@H]1CC[C@@H]1[C@@H]2CC[C@@]2(C)[C@H]1CC[C@]2(C)O [STANOZOLOL]
Not Active: IC50 [1] | IC50 [2] | IC50 [3] | Ki [3] | IC50 [4] | IC50 [5] | IC50 [6] | IC50 (Caspase-1)

CC1=C(/C=C/C(C)=C/C=C/C(C)=C\C(=O)O)C(C)(C)CCC1 [ISOTRETINOIN]
Not Active: IC50 [1] | IC50 [2] | IC50 [3] | Ki [3] | IC50 [4] | IC50 [5] | IC50 [6] | IC50 (Caspase-1)

NC(CO)(CO)CO [TROMETHAMINE]
Not Active: IC50 [1] | IC50 [2] | IC50 [3] | Ki [3] | IC50 [4] | IC50 [5] | IC50 [6] | IC50 (Caspase-1)

Cc1ccc(C(=O)C(C)CN2CCCCC2)cc1 (configuration not stated) [TOLPERISONE]
Not Active: IC50 [1] | IC50 [2] | IC50 [3] | Ki [3] | IC50 [4] | IC50 [5] | IC50 [6] | IC50 (Caspase-1)

CN(N=O)C(=O)N[C@@H](C=O)[C@@H](O)[C@H](O)[C@H](O)CO [STREPTOZOCIN]
Not Active: IC50 [1] | IC50 [2] | IC50 [3] | Ki [3] | IC50 [4] | IC50 [5] | IC50 [6] | IC50 (Caspase-1)

NC(=O)c1ncn([C@@H]2O[C@H](CO)[C@@H](O)[C@H]2O)n1 [RIBAVIRIN]
Not Active: IC50 [1] | IC50 [2] | IC50 [3] | Ki [3] | IC50 [4] | IC50 [5] | IC50 [6] | IC50 (Caspase-1)
